System: Fmoc-FRGD-PEGA surface tethered peptide (Fmoc-F↓RGD bond)
Assay: Enzymatic hydrolysis of PEGA surface tethered peptides analysed by HPLC
Type: biochemical
Experimental: Three proteolytic enzymes, chymotrypsin, thermolysin and proteinase K, that are known to cleave peptide bonds involving F amino acids in the P1 position were tested for their ability to selectively hydrolyse Fmoc-F↓RGD bond^15. […] Surfaces were incubated at 37° C. for 2 hours in enzyme solution (concentrations and activities are shown in Table 1) in phosphate buffer and the cleaved products were analysed by HPLC.
Surfaces were rinsed in a known volume (at least 4 ml) of a 50:50 mixture of acetonitrile (ACN) and water. The rinsing solution was kept and added to the enzyme solution that the surface was in. 1 ml of this solution was placed into an HPLC autosampler vial. The HPLC machine (manufactured by Dionex; California, USA) consisted of a P.680 HPLC pump joined to an ASI-100 Automated Sample Injector with a Dionex UVD17OU detector. The column was an EC 250/4.6 Nucleosil 100-5 C18, with an internal diameter of 4.6 mm and a column length of 250 mm containing particles of 5 μm in diameter. 100 μl was injected into the HPLC column at the start of each run and a buffer gradient run through the column, buffer A was 99.9% water and 0.1% TFA, buffer B was 99.9% ACN and 0.1% TFA. For quantification, three samples of each surface were produced and repeated three times.

[1] = 37° C., 2 hours in enzyme solution, 100% = 4.08 nmol maximum Fmoc-peptide hydrolysed, n=9

## Chymotrypsin
[1]
  Fmoc-F-OH (%): 42 ± 1.8%
  Fmoc-FR-OH (%): 7.5 ± 1.4%
HPLC
  cleavage and selectivity for Fmoc-F↓RGD versus Fmoc-FR↓GD: performing best
